Assay results reported in patent US10752588B2 (The Broad Institute, Inc., priority 2014, dated 2020).
In brackets after ≈: the same amount, converted by molar mass. Read-outs that look alike come from different tables or passages of the source.

Columns and labels:
human D2R/β-arrestin [1] = target: T1, human D2R/β-arrestin (Homo sapiens (Human), UniProt P14416); conditions: read-out: β-arrestin Antagonist
human D2R/β-arrestin [2] = target: T1, human D2R/β-arrestin; assay: Gi/cAMP agonist assay (Lance Ultra cAMP, Forskolin); assay type: cell-based; conditions: CHO-K1 cell line expressing human D2R/β-arrestin
Outline: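 Cells were plated and incubated before compounds were pin-transferred and incubated for 10 min at 37 °C. Forskolin was then added to stimulate cAMP. cAMP was detected by Lance Ultra TR-FRET using Eu-cAMP tracer and ULight-anti-cAMP antibody.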

human D2R/β-arrestin [3] = target: T1, human D2R/β-arrestin; assay: β-Arrestin agonist assay (PathHunter); assay type: cell-based; conditions: CHO-K1 cell line expressing human D2R/β-arrestin
Outline: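 After compound incubation, detection reagent (Buffer:Emerald II:Galactor-Star, 19:5:1) added and luminescence or fluorescence read.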

human D2R/β-arrestin [4] = target: T1, human D2R/β-arrestin; conditions: read-out: cAMP Antagonist
[5] = Microsomal stability, mouse
[6] = Microsomal stability, rat; assay type: in vitro ADME
human D2R/β-arrestin [7] = target: T1, human D2R/β-arrestin; assay: cell-based; conditions: cAMP Antagonist
[8] = Microsomal stability, human; assay type: in vitro ADME
Solubility in PBS = assay type: physicochemical; conditions: aqueous buffer
human D2R/β-arrestin [9] = target: T1, human D2R/β-arrestin; assay: cell-based; conditions: β-arrestin Antagonist
[10] = CHO-K1 cell line expressing human D2R/β-arrestin, quinpirole used as agonist

T1 sequence (P14416 whole entry): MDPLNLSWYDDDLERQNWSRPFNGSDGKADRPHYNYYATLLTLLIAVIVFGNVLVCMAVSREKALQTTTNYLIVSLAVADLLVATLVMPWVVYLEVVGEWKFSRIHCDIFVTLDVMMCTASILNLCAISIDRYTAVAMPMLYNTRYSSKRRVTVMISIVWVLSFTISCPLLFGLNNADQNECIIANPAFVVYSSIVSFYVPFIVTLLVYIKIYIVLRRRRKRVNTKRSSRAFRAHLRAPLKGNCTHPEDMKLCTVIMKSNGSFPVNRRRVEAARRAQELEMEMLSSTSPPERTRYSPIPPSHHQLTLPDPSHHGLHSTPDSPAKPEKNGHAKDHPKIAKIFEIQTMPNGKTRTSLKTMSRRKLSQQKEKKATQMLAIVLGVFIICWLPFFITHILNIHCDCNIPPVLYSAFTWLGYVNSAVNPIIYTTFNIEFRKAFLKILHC

| Structure (SMILES) | IC50 (human D2R/β-arrestin [1]) [nM] | EC50 (human D2R/β-arrestin [2]) [nM] | EC50 (human D2R/β-arrestin [3]) [nM] | IC50 (human D2R/β-arrestin [4]) [nM] | Microsomal Stability: % remaining after 60 minutes [5] | Microsomal Stability: % remaining after 60 minutes [6] [%] | IC50 (human D2R/β-arrestin [7]; [10]) [nM] | Microsomal Stability: % remaining after 60 minutes [8] [%] | solubility (Solubility in PBS) [µM] | IC50 (human D2R/β-arrestin [9]; [10]) [nM] | IC50 (human D2R/β-arrestin [7]) [nM] | Plasma Stability: % remaining after 5 hours (Plasma stability, mouse) | IC50 (human D2R/β-arrestin [9]) [nM] |
| --- | --- | --- | --- | --- | --- | --- | --- | --- | --- | --- | --- | --- | --- |
| CC1(C(=O)NC(c2ccc(F)cc2)c2ccccn2)CCN(CCOc2ccccc2C(F)(F)F)CC1 (single isomer, unassigned) [Compound 70b, N-((4-fluorophenyl)(pyridin-2-yl)methyl)-4-methyl-1-(2-(2-(trifluoromethyl)phenoxy)ethyl) piperidine-4-carboxamide] | 1000 to 10000 | < 100 | > 30000 | > 30000 | m0% |  |  |  |  |  |  |  |  |
| O=C(NC(c1ccc2c(c1)OCO2)c1ccccn1)C1CCN(CCOc2ccccc2F)CC1 (single isomer, unassigned) [Compound 95b, N-(benzo[d][1,3]dioxol-5-yl(pyridin-2-yl)methyl)-1-(2-(2-fluorophenoxy)ethyl) piperidine-4-carboxamide] | 100 to 1000 | 1000 to 10000 | > 30000 | 100 to 1000 | m12% |  |  |  |  |  |  |  |  |
| O=C(NC(c1cccc(OC(F)(F)F)c1)c1ccccn1)C1CCN(CCOc2ccccc2)CC1 (single isomer, unassigned) [Compound 118b, 1-(2-phenoxyethyl)-N-(pyridin-2-yl(3-(trifluoromethoxy)phenyl)methyl) piperidine-4-carboxamide] | 1000 to 10000 | 1000 to 10000 | > 30000 | > 30000 | m35% |  |  |  |  |  |  |  |  |
| COc1cccc(C(NC(=O)C2CCN(CCOc3ccccc3F)CC2)c2ccccn2)c1 (single isomer, unassigned) [Compound 22b, 1-(2-(2-fluorophenoxy)ethyl)-N-((3-methoxyphenyl)(pyridin-2-yl)methyl) piperidine-4-carboxamide] | 100 to 1000 | > 30000 | > 30000 | 100 to 1000 | m12% |  |  |  |  |  |  |  |  |
| COc1ccccc1OCCN1CCC(C(=O)NC(c2ccc(Cl)cc2)c2ccccn2)CC1 (stereo not shown) [Compound 109, N-((4-chlorophenyl) (pyridin-2-yl)methyl)-1-(2-(2-methoxyphenoxy)ethyl)piperidine-4-carboxamide] |  | > 30000 | > 30000 |  | 40% | 57 | < 100 | 59 | > 500 | < 100 |  |  |  |
| CC(C)N(CC1CCN(CCOc2ccccc2)CC1)C(c1ccc(Cl)cc1)c1ccccn1 (stereo not shown) [Compound 103, N-((4-chlorophenyl)(pyridin-2-yl)methyl)-N-((1-(2-phenoxyethyl)piperidin-4-yl)methyl)propan-2-amine] |  | < 100 | > 30000 |  | m1% |  |  |  |  |  | > 30000 | m97% | < 100 |
| O=C(NC(c1ccc(Cl)cc1)c1ccccn1)C1CCN(CCOc2cccnc2)CC1 (stereo not shown) [Compound 10] |  | 100 to 1000 | > 30000 |  | 44% | 57 | > 30000 | 75 | > 500 | 10000 to 30000 |  |  |  |
| O=C(NC(c1ccc(Cl)cc1)c1ccccn1)C1CCN(CCOc2ccccc2C(F)(F)F)CC1 (single isomer, unassigned) [Compound 6b] | < 100 | > 30000 | > 30000 | < 100 | m2% |  |  |  |  |  |  |  |  |
| COc1cccc(C(NCC2CCN(CCOc3ccccc3F)CC2)c2ccccn2)c1 (stereo not shown) [Compound 88, N-((1-(2-(2-fluorophenoxy)ethyl)piperidin-4-yl)methyl)-1-(3-methoxyphenyl)-1-(pyridin-2-yl)methanamine] |  | < 100 | > 30000 |  | m1% |  | 100 to 1000 |  | 461 (≈ 207 µg/mL) | 100 to 1000 |  |  |  |
| O=C(NC(c1ccc(Cl)cc1)c1ccccn1)C1CCN(CCOc2ccccc2C(F)(F)F)CC1 (single isomer, unassigned) [Compound 6a] | < 100 | > 30000 | > 30000 | < 100 | m31% |  |  |  |  |  |  |  |  |
